Source: patent US10556883B2, “Benzenesulfonamide compounds, method for synthesizing same, and use thereof in medicine and cosmetics” (GALDERMA RESEARCH & DEVELOPMENT, priority 2016, dated 2020)

Legend:
TACE enzyme = TACE enzyme (Homo sapiens (Human), UniProt P78536); details: WO 00/44709, page 251, table 10, example 61; cited from earlier work
[1] = target: Recombinant Human ADAM17 catalytic domain (Homo sapiens (Human), UniProt P78536); experiment: TACE (ADAM17) isolated enzyme assay, profluorescent peptidic substrate; details: read-out: TACE enz IC50; ADAM17 catalytic domain 500 nM, 40 μM substrate, two hours
Description: Activity of the compounds was investigated using TACE (ADAM17) isolated enzyme. […] Mca fluorescence was quenched by the Dpa group until cleavage by ADAM17 at the Ala-Val bond separates the two moieties.
The enzymatic reaction was performed in 384-well microplates with a final volume of 10 μL containing 1% DMSO. Recombinant Human ADAM17 catalytic domain (500 nM) was assayed with 40 μM of substrate and serial dilutions of tested inhibitors (from 10000 nM to 0.04 nM). After two hours of incubation at room temperature, the fluorescence was measured using a microplate reader (320/425 nm).
Data were normalized using the average of positive controls (enzyme with no inhibitor) and negative controls (no enzyme). IC50 were calculated using a four-parameters logistic model.

[2] = target: Recombinant Human catalytic domains of MMP1 (Homo sapiens (Human), UniProt P03956); experiment: MMP1 isolated enzyme assay, profluorescent peptidic substrate; format: biochemical; details: 10 minutes incubation at room temperature; read-out: MMP1 enz IC50
Source text: Activity of the compounds was investigated using MMP1 isolated enzyme.

[3] = system: TNFα secretion from LPS stimulated frozen Peripheral Blood Mononuclear Cells (PBMC); experiment: inhibition of TNFα secretion from LPS stimulated human PBMC (hPBMC assay); format: cell-based; details: LPS 1 μg/mL, overnight incubation, TNFα by HTRF
Description: Activity of the compounds was investigated using human peripheral blood mononuclear cells (hPBMC). This assay was designed to measure the inhibition of the TNFα secretion from LPS stimulated frozen Peripheral Blood Mononuclear Cells (PBMC) isolated from human blood. TNFα levels were measured using HTRF® Human TNFα kit (Cisbio #62TNFPEC) which is a rapid and quantitative sandwich immunoassay based on TR-FRET technology.
Frozen PBMC were quickly thawed, resuspended in culture medium (RPMI 10% inactivated FBS) and viable cells were seeded in 96-well plates (50,000 cells/well). […] After overnight incubation at 37° C., 10 μL of cell supernatant were mixed with 5 μL of each tagged anti-TNFα specific antibody as recommended by the supplier. After 2 hours of incubation at room temperature, the HTRF® signals were measured using a microplate reader (wavelengths: excitation=337 nm, first emission=620 nm, second emission=665 nm).

Recombinant Human ADAM17 catalytic domain, sequence (P78536 223-474): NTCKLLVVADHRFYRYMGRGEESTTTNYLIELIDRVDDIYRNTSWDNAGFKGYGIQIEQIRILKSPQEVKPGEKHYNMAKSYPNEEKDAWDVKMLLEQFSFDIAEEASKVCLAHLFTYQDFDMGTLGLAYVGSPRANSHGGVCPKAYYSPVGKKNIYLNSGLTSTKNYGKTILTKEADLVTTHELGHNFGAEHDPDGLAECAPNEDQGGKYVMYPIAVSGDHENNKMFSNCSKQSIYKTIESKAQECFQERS
Recombinant Human catalytic domains of MMP1, sequence (P03956 98-276): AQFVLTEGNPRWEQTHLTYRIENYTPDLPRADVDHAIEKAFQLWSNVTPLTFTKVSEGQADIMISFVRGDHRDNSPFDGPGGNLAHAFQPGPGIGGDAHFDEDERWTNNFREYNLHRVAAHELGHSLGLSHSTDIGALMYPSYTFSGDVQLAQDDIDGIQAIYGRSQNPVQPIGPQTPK
TACE enzyme, sequence (P78536 215-824): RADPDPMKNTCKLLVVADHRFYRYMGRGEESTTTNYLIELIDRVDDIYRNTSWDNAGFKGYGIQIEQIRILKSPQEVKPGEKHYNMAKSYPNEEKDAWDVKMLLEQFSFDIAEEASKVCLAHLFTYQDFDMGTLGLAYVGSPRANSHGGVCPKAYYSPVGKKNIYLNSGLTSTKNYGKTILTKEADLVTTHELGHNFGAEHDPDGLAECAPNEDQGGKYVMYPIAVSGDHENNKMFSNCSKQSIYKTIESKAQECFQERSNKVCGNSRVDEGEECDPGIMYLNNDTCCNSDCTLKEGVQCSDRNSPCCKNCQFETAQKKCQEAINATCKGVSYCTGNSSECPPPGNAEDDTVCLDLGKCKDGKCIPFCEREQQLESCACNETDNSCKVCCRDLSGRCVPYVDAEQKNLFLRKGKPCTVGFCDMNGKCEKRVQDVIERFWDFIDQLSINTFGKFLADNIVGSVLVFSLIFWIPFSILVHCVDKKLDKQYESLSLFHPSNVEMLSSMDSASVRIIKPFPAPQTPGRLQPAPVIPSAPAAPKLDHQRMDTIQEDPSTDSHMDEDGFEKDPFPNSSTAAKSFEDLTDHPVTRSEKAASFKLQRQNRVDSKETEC

Structure (SMILES)	IC50 [1] [nM]	IC50 [2] [nM]	selectivity for the TACE enzyme compared with certain MMPs (TACE enzyme)	IC50 [3] [nM]
CC1(C)SCCN(S(=O)(=O)c2ccc(OCC#CCO)cc2)[C@H]1C(=O)NO [Apratastat]	–	–	not selective	–
Cc1cc(COc2ccc(S(=O)(=O)NC3(C(=O)NO)CN(C(=O)C(C)C)C3)cc2)c2ccccc2n1 [Example 7b, N-hydroxy-1-isobutyryl-3-((4-((2-methylquinolin-4-yl)methoxy)phenyl)sulfonamido)azetidine-3-carboxamide]	5.2	> 10000	–	< 50
Cc1cc(COc2ccc(S(=O)(=O)NC3(CC(=O)NO)CN(C(=O)C(C)(C)N(C)C)C3)cc2)c2ccccc2n1 [Example 18, 2-(1-(2-(dimethylamino)-2-methylpropanoyl)-3-((4-((2-methylquinolin-4-yl)methoxy)phenyl)sulfonamido)azetidin-3-yl)-N-hydroxyacetamide]	3.5	> 10000	–	< 50
Cc1cc(COc2ccc(S(=O)(=O)NC3(C(=O)NO)CN(C(=O)CC4CCC4)C3)cc2)c2ccccc2n1 [Example 26f, 1-(2-cyclobutylacetyl)-N-hydroxy-3-((4-((2-methylquinolin-4-yl)methoxy)phenyl)sulfonamido)azetidine-3-carboxamide]	11.4	> 10000	–	< 50

Second part, led by results:

IC50 [1] [nM]	IC50 [2] [nM]	Structure (SMILES)	selectivity for the TACE enzyme compared with certain MMPs (TACE enzyme)	IC50 [3] [nM]
2.8	> 10000	Cc1cc(COc2ccc(S(=O)(=O)NC3(CC(=O)NO)CN(C(=O)N4CCN(C)CC4)C3)cc2)c2ccccc2n1 [Example 10, N-hydroxy-2-(1-(4-methylpiperazine-1-carbonyl)-3-((4-((2-methylquinolin-4-yl)methoxy)phenyl)sulfonamido)azetidin-3-yl)acetamide]	–	< 50
8.2	> 10000	Cc1cc(COc2ccc(S(=O)(=O)NC3(CC(=O)NO)CN(C(=O)CC(C)(C)C)C3)cc2)c2ccccc2n1 [Example 11, 2-(1-(3,3-dimethylbutanoyl)-3-((4-((2-methylquinolin-4-yl)methoxy)phenyl)sulfonamido)azetidin-3-yl)-N-hydroxyacetamide]	–	< 50
5.6	> 10000	CCN1CCN(C(=O)N2CC(CC(=O)NO)(NS(=O)(=O)c3ccc(OCc4cc(C)nc5ccccc45)cc3)C2)CC1 [Example 28b, 2-(1-(4-ethylpiperazine-1-carbonyl)-3-((4-((2-methylquinolin-4-yl)methoxy)phenyl)sulfonamido)azetidin-3-yl)-N-hydroxyacetamide]	–	< 50
